Laboratory results reported in patent publication EP4667464A1 (Cyrus Therapeutics Inc., priority 2023, dated 2024).
Read-outs that look alike come from different tables or passages of the source.

How the values were obtained:
[1] = tested on: lung cancer cell line H358 having the KRAS G12S variant; assay: SynergyScreen combination efficacy (ATPlite 1Step cell viability); details: for Synergy 2: difference between Synergy 1 and cell death rate of Ex. 1-2 alone
Protocol: In order to measure cell viability, each well was treated with 24 µL of ATPlite 1Step™ (PerkinElmer) solution, then mixed for 2 minutes, and reacted by blocking light for 5 minutes, and then the luminescence signal was measured using an Envision multilabel reader (PerkinElmer).
KRAS G12C::SOS1 = molecular target: T1, KRAS G12C::SOS1 (Homo sapiens, UniProt Q07889); assay: KRAS G12C::SOS1 protein-protein interaction (PPI) inhibition assay (HTRF); type: binding
T1 construct: purchased CISBIO 64KRASG12PEH
T1 sequence (Q07889 1-1333): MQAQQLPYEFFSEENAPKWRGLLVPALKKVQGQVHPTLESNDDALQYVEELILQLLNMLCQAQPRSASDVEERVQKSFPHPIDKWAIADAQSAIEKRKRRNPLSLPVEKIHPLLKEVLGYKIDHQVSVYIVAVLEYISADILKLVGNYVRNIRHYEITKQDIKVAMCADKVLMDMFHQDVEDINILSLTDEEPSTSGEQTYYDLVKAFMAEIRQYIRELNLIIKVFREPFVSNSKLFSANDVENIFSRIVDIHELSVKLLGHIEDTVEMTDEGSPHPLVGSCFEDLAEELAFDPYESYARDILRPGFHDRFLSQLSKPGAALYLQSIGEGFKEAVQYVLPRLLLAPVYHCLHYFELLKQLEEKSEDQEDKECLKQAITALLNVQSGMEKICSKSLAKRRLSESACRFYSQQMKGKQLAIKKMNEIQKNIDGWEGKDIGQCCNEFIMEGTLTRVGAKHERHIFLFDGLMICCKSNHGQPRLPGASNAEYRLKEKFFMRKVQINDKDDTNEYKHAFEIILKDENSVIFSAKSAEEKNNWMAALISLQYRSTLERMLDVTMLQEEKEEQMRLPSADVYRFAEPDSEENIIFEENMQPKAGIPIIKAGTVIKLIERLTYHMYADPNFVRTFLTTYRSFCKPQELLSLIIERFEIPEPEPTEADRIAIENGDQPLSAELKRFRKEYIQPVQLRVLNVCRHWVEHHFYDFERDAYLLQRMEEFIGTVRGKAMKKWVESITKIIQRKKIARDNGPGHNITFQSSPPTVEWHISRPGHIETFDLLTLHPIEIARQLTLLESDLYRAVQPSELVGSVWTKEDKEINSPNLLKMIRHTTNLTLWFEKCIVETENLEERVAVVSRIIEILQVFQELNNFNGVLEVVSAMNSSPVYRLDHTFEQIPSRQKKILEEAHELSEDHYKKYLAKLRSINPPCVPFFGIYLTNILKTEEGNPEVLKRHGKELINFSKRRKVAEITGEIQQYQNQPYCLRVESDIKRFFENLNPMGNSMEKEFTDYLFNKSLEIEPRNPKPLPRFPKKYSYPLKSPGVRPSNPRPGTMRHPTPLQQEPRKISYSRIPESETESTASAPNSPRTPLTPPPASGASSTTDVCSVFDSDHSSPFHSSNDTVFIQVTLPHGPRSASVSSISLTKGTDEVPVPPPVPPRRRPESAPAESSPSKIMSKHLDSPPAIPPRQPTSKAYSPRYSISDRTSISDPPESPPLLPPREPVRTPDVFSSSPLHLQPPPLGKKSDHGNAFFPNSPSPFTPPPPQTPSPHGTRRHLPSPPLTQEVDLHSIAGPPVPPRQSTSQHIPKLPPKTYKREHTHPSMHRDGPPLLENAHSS
In short: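 Compounds, at eight 3-fold dilutions from 3 µM, were mixed with GTP-loaded Tag1-KRAS G12C, Tag2-SOS1 and a terbium-cryptate donor plus XL665 acceptor antibody pair. After 2 h at room temperature, time-resolved FRET reported the KRAS–SOS1 interaction.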

[2] = tested on: lung cancer cell line NCI-H358 having the KRAS G12C variant; assay: Cancer cell growth inhibition, 3D spheroids (CellTiter-Glo 3D); type: cell-based; details: read-out: H358 cell viability
In short: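 NCI-H358 (KRAS G12C) spheroids lysed with CellTiter-Glo 3D for 30 min with shaking after 10 min at room temperature. Growth in compound-treated wells expressed relative to untreated wells set to 100%.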

SOS1 = molecular target: T2, SOS1 (Homo sapiens, UniProt Q07889); assay: SOS-catalyzed nucleotide exchange assay (HTRF, SOS1-mediated GTP loading of KRAS G12D); type: biochemical
T2 construct: HIS-SOS1cat (160 nM; Cytoskeleton, US); His (N); purchased Cytoskeleton
T2 sequence (Q07889 564-1049 limits assumed): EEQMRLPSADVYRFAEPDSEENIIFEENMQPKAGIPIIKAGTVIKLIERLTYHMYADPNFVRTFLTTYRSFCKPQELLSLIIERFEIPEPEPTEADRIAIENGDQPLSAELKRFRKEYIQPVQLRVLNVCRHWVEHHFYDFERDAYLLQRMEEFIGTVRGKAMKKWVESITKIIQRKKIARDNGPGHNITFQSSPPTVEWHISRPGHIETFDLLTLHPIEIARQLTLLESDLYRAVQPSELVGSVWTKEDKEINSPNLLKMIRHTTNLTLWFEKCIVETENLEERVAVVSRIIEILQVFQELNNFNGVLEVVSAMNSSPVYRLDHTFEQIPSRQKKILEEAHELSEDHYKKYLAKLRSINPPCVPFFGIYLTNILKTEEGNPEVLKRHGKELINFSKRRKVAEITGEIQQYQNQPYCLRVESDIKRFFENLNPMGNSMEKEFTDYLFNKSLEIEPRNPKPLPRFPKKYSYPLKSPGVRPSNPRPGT

[3] = 8 concentrations from 3 µM, three replicates, read-out: KRAS G12C::SOS1 PPI
[4] = Homo sapiens, NCI-H358, 120 h, 3D spheroids, 0.002-10 µM, 5 days
[5] = GST-KRAS G12D, HIS-SOS1cat, compound 128 pM to 10 µM, read-out: SOS-catalyzed nucleotide exchange assay
[6] = 3D spheroids, 0.002-10 µM, 5 days

Molecule	IC50 (KRAS G12C::SOS1; [3])	IC50 [2, 4]	IC50 (SOS1; [5])	also measured
O=c1cc(-c2ccc(O)c(O)c2O)oc2ccccc12 [Example 2-D08, 2-D08]	–	–	–	Synergy 2 ([1]; Ex. 1-2 log M -6.3, culture time 120 h): + (less than 10%)
C[C@@H](NC(=O)c1cc(CO)c(=O)n(-c2cncc(-c3cnnn3C3CC3)c2)n1)c1cccc(C(F)(F)F)c1F [Example 6-3]	–	–	–	IC50 (KRAS G12C::SOS1): < 50 nM; IC50 ([2]; Homo sapiens, NCI-H358, 120 h): < 1000 nM; IC50 (SOS1): < 50 nM
C[C@@H](NC(=O)c1ccc(=O)n(-c2cnc(F)c(-c3cnnn3C)c2)n1)c1cccc(C(F)(F)F)c1F [Example 6]	–	–	–	IC50 (KRAS G12C::SOS1): 50 to 150 nM; IC50 ([2]; Homo sapiens, NCI-H358, 120 h): < 1000 nM; IC50 (SOS1): 50 to 150 nM
CNC(=O)c1cc(Oc2ccc(NC(=O)Nc3ccc(Cl)c(C(F)(F)F)c3)cc2)ccn1 [Sorafenib, sorafenib]	–	–	–	Synergy 2 ([1]; Ex. 1-2 log M -5.9, culture time 72 h): + (less than 10%)
C[C@]12C=CC(=O)C=C1CC[C@@H]1[C@@H]2[C@@H](O)C[C@@]2(C)[C@H]1CC[C@]2(O)C(=O)CO [prednisolone]	–	–	–	Concentration (log M) Anticancer agent ([1]; words printed in place of a concentration, culture time 72 h, with Ex. 1-2 log M -5.9): No Concentration -dependent change
(R)-3-bromo-N-(1-(2-fluoro-3-(trifluoromethyl)phenyl)ethyl)-5'-(1-methyl-1H-1,2,3-triazol-5-yl)-2-oxo-2H-[1,3'-bipyridine]-5-carboxamide [Example 1-22]	50 to 150 nM	–	> 150 nM	IC50 [2, 6]: < 1000 nM
N-[(1R)-1-[3-(1,1-difluoro-2-hydroxy-ethyl)-2-fluoro-phenyl]ethyl]-1-[5-(2-methylpyrazol-3-yl)-3-pyridyl]-6-oxo-pyridazine-3-carboxamide [Example 1-16]	50 to 150 nM	–	50 to 150 nM	IC50 [2, 6]: < 1000 nM

Now from value to molecule, other results behind:

IC50 (KRAS G12C::SOS1; [3])	IC50 [2, 4]	IC50 (SOS1; [5])	Molecule	also measured
50 to 150 nM	< 1000 nM	< 50 nM	CC(C)n1nncc1-c1cncc(-n2nc(C(=O)N[C@H](C)c3cccc(C(F)(F)F)c3F)cc(CO)c2=O)c1 [Example 6-2, N-{(1R)-1-[2-fluoro-3-(trifluoromethyl)phenyl]ethyl}-1-[5-(1-isopropyl-1H-1,2,3-triazol-5-yl)-3-pyridyl]-5-(hydroxymethyl)-6-oxo-1,6-dihydropyridazine-3-carboxamide]	–
50 to 150 nM	< 1000 nM	< 50 nM	CCn1nncc1-c1cncc(-n2nc(C(=O)N[C@H](C)c3cccc(C(F)(F)F)c3F)cc(CO)c2=O)c1 [Example 6-4, N-{ (R)-1-[2-fluoro-3-(trifluoromethyl)phenyl]ethyl}-1-[5-(1-ethyl-1H-1,2,3-triazol-5-yl)-3-pyridyl]-5-(hydroxymethyl)-6-oxo-1,6-dihydropyridazine-3-carboxamide]	–
< 50 nM	< 1000 nM	< 50 nM	C[C@@H](NC(=O)c1ccc(=O)n(-c2cc(-c3cnnn3C)cnc2F)n1)c1cccc(C(F)(F)F)c1F [Example 6-7, N-{(R)-1-[2-fluoro-3-(trifluoromethyl)phenyl]ethyl}-1-[2-fluoro-5-(1-methyl-1H-1,2,3-triazol-5-yl)-3-pyridyl]-6-oxo-1,6-dihydropyridazine-3-carboxamide]	–
< 50 nM	< 1000 nM	< 50 nM	C[C@@H](NC(=O)c1cc(C2CC2)c(=O)n(-c2cncc(-c3cnnn3C)c2)c1)c1cccc(C(F)(F)F)c1F [Example 7, (R)-3-cyclopropyl-N-(1-(2-fluoro-3-(trifluoromethyl)phenyl)ethyl)-5'-(1-methyl-1H-1,2,3-triazol-5-yl)-2-oxo-2H-[1,3'-bipyridine]-5-carboxamide]	–
50 to 150 nM	< 1000 nM	50 to 150 nM	[2H]C([2H])([2H])c1cc(C(=O)N[C@H](C)c2cccc(C(F)(F)F)c2F)nn(-c2cncc(-c3cnnn3C)c2)c1=O [Example 7-1, N-{(R)-1-[2-fluoro-3-(trifluoromethyl)phenyl]ethyl}-5-[methyl-trideuterio]-1-[5-(1-methyl-1H-1,2,3-triazol-5-yl)-3-pyridyl]-6-oxo-1,6-dihydropyridazine-3-carboxamide]	–
< 50 nM	< 1000 nM	50 to 150 nM	[2H]C([2H])([2H])c1cc(C(=O)N[C@H](C)c2cccc(C(F)F)c2F)nn(-c2cncc(-c3cnnn3C)c2)c1=O [Example 7-2, N-{(R)-1-[3-(difluoromethyl)-2-fluorophenyl]ethyl}-5-[methyl-trideuterio]-1-[5-(1-methyl-1H-1,2,3-triazol-5-yl)-3-pyridyl]-6-oxo-1,6-dihydropyridazine-3-carboxamide]	–
< 50 nM	< 1000 nM	50 to 150 nM	Cc1cc(C(=O)N[C@H](C)c2cccc(C(F)(F)F)c2F)nn(-c2cncc(-c3cnnn3C)c2)c1=O [Example 7-3, N-{ (R)-1-[2-fluoro-3-(trifluoromethyl)phenyl]ethyl}-5-methyl-1-[5-(1-methyl-1H-1,2,3-triazol-5-yl)-3-pyridyl]-6-oxo-1,6-dihydropyridazine-3-carboxamide]	–
< 50 nM	< 1000 nM	< 50 nM	C[C@@H](NC(=O)c1cc(C2CC2)c(=O)n(-c2cncc(-c3cnnn3C)c2)n1)c1cccc(C(F)(F)F)c1F [Example 7-4, N-{(R)-1-[2-fluoro-3-(trifluoromethyl)phenyl]ethyl}-5-cyclopropyl-1-[5-(1-methyl-1H-1,2,3-triazol-5-yl)-3-pyridyl]-6-oxo-1,6-dihydropyridazine-3-carboxamide]	–
< 50 nM	< 1000 nM	< 50 nM	C[C@@H](NC(=O)c1cc(C2=CCCCC2)c(=O)n(-c2cncc(-c3cnnn3C)c2)c1)c1cccc(C(F)(F)F)c1F [Example 15, N-{(R)-1-[2-fluoro-3-(trifluoromethyl)phenyl]ethyl}-5-(1-cyclohexen-1-yl)-5'-(1-methyl-1H-1,2,3-triazol-5-yl)-6-oxo-1H-[1,3'-bipyridyl]-3-carboxamide]	–
< 50 nM	–	< 50 nM	N-[(1R)-1-[5-amino-3-(difluoromethyl)-2-fluoro-phenyl]ethyl]-5-methyl-1-[5-(3-methyltriazol-4-yl)-3-pyridyl]-6-oxo-pyridazine-3-carboxamide [Example 2-3]	IC50 [2, 6]: < 1000 nM
